# Reference: ChEMBL document CHEMBL1201862, “PubChem BioAssay data set” (2004)
# Active and inactive are the calls of the source.
# How the values were obtained:
# [1] = target: Serine/threonine-protein kinase BRSK1 (Homo sapiens, UniProt Q8TDC3); type: functional;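 also: measured within a kinome-wide kinase panel, with the target listed as KIAA1811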
# [2] = target: Non-receptor tyrosine-protein kinase TYK2 (Homo sapiens, UniProt P29597); type: functional
# [3] = target: T1, Exodeoxyribonuclease V (Escherichia coli (strain K12), UniProt P04993+P07648+P08394); assay: E. coli RecBCD inhibitors, dose response, counter-screen for AddAB inhibitor project, absorbance, V66 E. coli, mutant T4 phage (AID 492957); type: functional, cell-based, Escherichia coli str. K-12 substr. MG1655
# T1 sequence (P04993 whole entry): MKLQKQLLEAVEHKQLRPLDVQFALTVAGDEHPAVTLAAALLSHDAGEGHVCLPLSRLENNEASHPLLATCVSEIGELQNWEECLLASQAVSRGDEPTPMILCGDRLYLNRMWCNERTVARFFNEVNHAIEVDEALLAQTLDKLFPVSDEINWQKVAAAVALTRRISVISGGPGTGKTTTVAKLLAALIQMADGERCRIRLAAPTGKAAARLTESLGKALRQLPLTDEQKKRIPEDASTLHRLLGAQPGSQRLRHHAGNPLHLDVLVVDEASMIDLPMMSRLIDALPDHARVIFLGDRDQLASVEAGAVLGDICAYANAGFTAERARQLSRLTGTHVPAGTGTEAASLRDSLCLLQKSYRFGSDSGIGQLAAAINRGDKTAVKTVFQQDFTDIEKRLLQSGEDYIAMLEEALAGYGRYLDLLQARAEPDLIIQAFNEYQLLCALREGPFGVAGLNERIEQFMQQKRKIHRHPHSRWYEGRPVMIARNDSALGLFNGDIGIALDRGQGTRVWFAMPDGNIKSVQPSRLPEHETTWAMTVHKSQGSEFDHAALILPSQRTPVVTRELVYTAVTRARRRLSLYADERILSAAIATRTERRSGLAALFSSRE
# T1 sequence (P07648 whole entry): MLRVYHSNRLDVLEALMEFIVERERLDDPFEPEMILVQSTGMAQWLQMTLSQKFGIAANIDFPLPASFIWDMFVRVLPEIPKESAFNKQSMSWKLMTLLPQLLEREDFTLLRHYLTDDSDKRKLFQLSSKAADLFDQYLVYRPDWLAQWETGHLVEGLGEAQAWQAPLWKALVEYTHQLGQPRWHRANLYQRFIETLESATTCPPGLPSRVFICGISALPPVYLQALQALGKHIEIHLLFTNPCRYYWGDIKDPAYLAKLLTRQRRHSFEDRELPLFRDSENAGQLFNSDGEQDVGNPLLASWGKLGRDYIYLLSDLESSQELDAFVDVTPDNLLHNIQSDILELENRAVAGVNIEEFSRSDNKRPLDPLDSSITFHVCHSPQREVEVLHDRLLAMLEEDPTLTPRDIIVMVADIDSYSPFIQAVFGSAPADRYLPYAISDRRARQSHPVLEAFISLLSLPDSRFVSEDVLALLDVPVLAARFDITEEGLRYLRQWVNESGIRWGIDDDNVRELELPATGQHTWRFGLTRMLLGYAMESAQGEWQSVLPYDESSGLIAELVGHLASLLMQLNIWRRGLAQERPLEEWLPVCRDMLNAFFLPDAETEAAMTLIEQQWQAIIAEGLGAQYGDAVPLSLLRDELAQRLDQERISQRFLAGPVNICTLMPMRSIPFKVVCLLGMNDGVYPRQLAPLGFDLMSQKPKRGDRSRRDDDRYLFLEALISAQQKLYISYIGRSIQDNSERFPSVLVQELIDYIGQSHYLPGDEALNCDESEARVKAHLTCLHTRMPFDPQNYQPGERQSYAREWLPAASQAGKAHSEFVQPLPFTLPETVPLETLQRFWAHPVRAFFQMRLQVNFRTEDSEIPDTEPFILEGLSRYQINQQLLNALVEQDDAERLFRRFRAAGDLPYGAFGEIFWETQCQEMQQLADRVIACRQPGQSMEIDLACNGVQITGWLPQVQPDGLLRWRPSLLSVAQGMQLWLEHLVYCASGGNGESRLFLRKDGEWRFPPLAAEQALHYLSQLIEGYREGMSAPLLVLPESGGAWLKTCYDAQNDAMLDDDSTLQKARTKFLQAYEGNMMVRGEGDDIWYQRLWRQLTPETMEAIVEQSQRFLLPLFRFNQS
# T1 sequence (P08394 whole entry): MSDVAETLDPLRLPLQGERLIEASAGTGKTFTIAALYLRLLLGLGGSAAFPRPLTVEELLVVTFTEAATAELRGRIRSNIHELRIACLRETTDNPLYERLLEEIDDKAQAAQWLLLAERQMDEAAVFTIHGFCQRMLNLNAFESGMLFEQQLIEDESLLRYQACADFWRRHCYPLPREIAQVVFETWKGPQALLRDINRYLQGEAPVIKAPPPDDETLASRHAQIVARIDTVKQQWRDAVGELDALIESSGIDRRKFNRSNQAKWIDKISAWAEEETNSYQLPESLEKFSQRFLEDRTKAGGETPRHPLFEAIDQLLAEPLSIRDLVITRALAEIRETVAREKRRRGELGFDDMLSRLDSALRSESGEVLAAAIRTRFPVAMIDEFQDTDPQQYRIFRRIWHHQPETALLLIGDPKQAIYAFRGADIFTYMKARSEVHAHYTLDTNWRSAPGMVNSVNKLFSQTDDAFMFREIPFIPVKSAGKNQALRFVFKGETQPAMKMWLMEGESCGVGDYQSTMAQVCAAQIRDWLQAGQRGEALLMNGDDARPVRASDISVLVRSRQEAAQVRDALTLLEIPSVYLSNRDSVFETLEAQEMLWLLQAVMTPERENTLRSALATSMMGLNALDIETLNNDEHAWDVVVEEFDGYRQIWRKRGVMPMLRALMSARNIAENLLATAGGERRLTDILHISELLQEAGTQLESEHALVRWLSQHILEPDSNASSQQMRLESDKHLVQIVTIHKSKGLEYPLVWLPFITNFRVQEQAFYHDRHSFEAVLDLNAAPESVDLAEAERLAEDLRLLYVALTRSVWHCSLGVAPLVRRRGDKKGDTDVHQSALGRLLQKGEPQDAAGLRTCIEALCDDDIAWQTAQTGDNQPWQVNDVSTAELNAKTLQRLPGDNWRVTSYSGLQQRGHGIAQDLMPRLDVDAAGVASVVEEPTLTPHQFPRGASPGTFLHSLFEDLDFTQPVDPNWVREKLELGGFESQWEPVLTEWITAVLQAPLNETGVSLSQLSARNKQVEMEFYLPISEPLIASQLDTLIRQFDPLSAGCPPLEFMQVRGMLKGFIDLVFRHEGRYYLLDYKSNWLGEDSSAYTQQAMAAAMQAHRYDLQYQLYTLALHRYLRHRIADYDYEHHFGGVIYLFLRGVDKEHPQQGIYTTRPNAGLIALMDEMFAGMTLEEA
# [4] = HepG2 cell cytotoxicity, dose response, cytotoxicity control for Shn3 inhibitor project, CellTiter-Glo, cherry-picked (AID 624134); type: functional, cell-based
# Non-receptor tyrosine-protein kinase TYK2, sequence (P29597 whole entry): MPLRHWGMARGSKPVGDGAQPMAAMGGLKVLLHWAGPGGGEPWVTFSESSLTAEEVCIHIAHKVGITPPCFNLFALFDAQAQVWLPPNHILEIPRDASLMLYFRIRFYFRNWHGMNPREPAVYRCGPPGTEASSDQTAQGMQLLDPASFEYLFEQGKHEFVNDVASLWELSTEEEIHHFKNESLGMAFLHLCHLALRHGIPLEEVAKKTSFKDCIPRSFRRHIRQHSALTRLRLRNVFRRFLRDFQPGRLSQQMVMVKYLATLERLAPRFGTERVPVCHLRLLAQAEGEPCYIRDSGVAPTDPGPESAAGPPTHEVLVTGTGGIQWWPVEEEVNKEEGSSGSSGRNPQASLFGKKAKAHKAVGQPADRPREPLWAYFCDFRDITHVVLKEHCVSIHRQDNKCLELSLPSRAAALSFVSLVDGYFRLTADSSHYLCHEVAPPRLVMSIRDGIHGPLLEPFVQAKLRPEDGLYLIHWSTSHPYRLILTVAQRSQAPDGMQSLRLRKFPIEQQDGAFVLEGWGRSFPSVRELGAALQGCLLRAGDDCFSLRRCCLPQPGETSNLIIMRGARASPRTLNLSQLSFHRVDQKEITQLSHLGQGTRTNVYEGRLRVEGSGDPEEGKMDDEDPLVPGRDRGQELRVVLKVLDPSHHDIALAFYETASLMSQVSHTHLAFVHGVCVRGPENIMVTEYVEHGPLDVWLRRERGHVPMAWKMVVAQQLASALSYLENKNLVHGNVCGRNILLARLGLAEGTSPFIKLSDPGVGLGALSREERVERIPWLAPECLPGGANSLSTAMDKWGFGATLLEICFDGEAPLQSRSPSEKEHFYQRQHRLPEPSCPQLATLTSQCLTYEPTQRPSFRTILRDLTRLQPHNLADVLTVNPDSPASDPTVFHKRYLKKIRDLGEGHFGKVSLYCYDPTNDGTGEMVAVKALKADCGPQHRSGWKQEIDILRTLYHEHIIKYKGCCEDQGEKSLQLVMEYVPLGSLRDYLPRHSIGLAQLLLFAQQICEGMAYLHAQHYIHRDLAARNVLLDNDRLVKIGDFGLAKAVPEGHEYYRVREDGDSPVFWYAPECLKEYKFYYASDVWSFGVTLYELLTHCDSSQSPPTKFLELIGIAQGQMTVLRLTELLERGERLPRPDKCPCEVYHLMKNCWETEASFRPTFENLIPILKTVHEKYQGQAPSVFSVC
# Serine/threonine-protein kinase BRSK1, sequence (Q8TDC3 whole entry): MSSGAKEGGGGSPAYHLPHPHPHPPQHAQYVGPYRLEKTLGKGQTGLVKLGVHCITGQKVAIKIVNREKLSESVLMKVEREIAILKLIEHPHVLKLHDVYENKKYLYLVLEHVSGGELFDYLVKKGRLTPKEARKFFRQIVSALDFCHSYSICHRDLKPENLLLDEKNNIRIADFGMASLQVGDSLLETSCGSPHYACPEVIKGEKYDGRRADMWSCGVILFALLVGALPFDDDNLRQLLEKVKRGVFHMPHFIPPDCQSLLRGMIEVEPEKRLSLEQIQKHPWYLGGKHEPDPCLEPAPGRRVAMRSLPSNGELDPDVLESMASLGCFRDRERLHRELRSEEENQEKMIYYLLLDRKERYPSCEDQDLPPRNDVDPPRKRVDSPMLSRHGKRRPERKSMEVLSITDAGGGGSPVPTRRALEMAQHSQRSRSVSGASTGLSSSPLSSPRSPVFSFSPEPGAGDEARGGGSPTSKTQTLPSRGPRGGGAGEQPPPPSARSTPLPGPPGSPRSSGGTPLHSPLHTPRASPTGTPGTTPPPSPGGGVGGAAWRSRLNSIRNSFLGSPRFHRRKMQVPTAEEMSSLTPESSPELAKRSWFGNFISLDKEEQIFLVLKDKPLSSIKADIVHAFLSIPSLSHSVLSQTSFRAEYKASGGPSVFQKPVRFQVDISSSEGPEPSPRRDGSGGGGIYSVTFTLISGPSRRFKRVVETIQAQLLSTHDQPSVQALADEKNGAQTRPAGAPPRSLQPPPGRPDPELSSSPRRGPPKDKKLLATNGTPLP
SMILES,Ki [1],Ki [2],IC50 [3],AC50 [4]
CS(=O)(=O)N(Cc1ccc2[nH]c(=O)c3cccn3c2c1)C1CC1,200 nM (active),> 2000 nM (inactive),–,–
Cc1cc(NC(c2ccc(Cl)cc2)c2ccc3cccnc3c2O)no1 (centres undefined),–,–,> 119000 nM (inactive),1270 nM (active)
